Data on two molecules can be found in patent publication US20050165015A1, “Vanilloid receptor ligands and their use in treatments” (priority 2004, published 2005).

One may read the melting point as the temperature of the solid-liquid transition.

For `O=C(Nc1ccc(C(F)(F)F)cc1)c1ccc(-c2ncccc2Cl)cc1`, the melting point was 208.6 °C.

For `O=C(Nc1ccc(C(F)(F)F)cc1)c1ccc(-c2ncccc2C(F)(F)F)cc1` [Example 1, N-(4-Trifluoromethyl-phenyl)-4-(3-trifluoromethyl-pyridin-2-yl)-benzamide], the melting point is 197.8 to 197.9 °C.
